Reference: patent publication US4414204A, “Antibiotic preparations having increased effectiveness, processes for their manufacture and method for increasing the antibiotic action of antibiotics” (Ciba-Geigy Corporation, priority 1979, dated 1983)

How the values were obtained:
Type in all cases: in vivo
Klebsiella pneumoniae = experiment: Mice infected i.p. with Klebsiella pneumoniae, treated s.c. with cefroxadin alone or with muramylpeptide; survival, ED50; conditions: 2×10^4 cfu Klebsiella pneumoniae i.p., cefroxadin twice s.c. (0 and 3 h after infection) with 10 mg/kg N-acetylmuramyl-L-alanyl-D-isoglutaminyl-L-alanyl-2-(1',2'-dipalmitoyl-sn-glycero-3'-hydroxyphosphoryloxy)-ethylamide, survivors counted 4 and 10 days after infection
Experimental: (§1) For this purpose, animals are infected with a lethal or sub-lethal dose of a pathogenic micro-organism and then the specified novel preparation of the individual doses of muramylpeptide and antibiotic are administered. The action is determined as ED50, that is to say, the dose at which 50% of the animals survive.
(§2) Laboratory white mice are infected i.p. with 2×10^4 cfu (colony forming units) of Klebsiella pneumoniae, 0.1×10^4 cfu of Pasteurella multocida or 40×10^4 cfu of Salmonella typhimurium in salt solution so that 90 to 100% of the untreated control animals die within 48 hours. Immediately after infection and 3 hours after infection, groups of 10 mice are treated with cefroxadin, both alone (without muramylpeptide) and in combination with 10 mg/kg of N-acetylmuramyl-L-alanyl-D-isoglutaminyl-L-alanyl-2-(1',2'-dipalmitoyl-sn- glycero-3'-hydroxyphosphoryloxy)-ethylamide, these being administered twice subcutaneously in the form of aqueous solutions or suspensions. A count of the surviving animals was made 4 and 10 days after infection.

Salmonella typhimurium = experiment: Mice infected i.p. with Salmonella typhimurium, treated s.c. with cefroxadin alone or with muramylpeptide; survival, ED50; conditions: 40×10^4 cfu Salmonella typhimurium i.p., cefroxadin twice s.c. (0 and 3 h after infection) with 10 mg/kg N-acetylmuramyl-L-alanyl-D-isoglutaminyl-L-alanyl-2-(1',2'-dipalmitoyl-sn-glycero-3'-hydroxyphosphoryloxy)-ethylamide, survivors counted 4 and 10 days after infection
Experimental: as §1, §2

Pasteurella multocida = experiment: Mice infected i.p. with Pasteurella multocida, treated s.c. with cefroxadin alone or with muramylpeptide; survival, ED50; conditions: 0.1×10^4 cfu Pasteurella multocida i.p., cefroxadin twice s.c. (0 and 3 h after infection) with 10 mg/kg N-acetylmuramyl-L-alanyl-D-isoglutaminyl-L-alanyl-2-(1',2'-dipalmitoyl-sn-glycero-3'-hydroxyphosphoryloxy)-ethylamide, survivors counted 4 and 10 days after infection
Experimental: as §1, §2

Measured: ED50 values for the antibiotic in combination with the muramylpeptide versus alone

COC1=C(C(=O)O)N2C(=O)[C@@H](NC(=O)[C@H](N)C3=CCC=CC3)[C@H]2SC1 [cefroxadin, 7β-[D-2-amino-2-(1,4-cyclohexadienyl)-acetamido]-3-methoxy-3-cephem-4-carboxylic acid]
lower by a multiple: all assays above
